Results from patent US11976083B2, “Inhibitors of peptidylarginine deiminases” (Gilead Sciences, Inc., priority 2020, dated 2024).

Molecular target: T1, human PAD4 (Homo sapiens, UniProt Q9UM07)
T1 construct: human PAD4 (NM_012387), A2-P663, was PCR amplified; His-SUMO (N, cleaved yes); made in house; host or cells: E. coli BL21(DE3)
Test: In vitro PAD4 BAEE biochemical assay
Conditions: BAEE substrate 3 mM, 5 nM PAD4, 2 mM calcium chloride; geometric mean of multiple experiments
Procedure, shortened: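 Ammonia produced by BAEE deimination (3 mM substrate, 2 h, 25 °C) was read as fluorescent isoindole after o-phthalaldehyde/DTT derivatization, ex 405 nm/em 535 nm. Human PAD4 at 5 nM final, 2 mM calcium, pH 7.6 MOPS; compound preincubated 30 min. IC50s, normalized to BB-Cl-Amidine and DMSO controls, were geometric-mean averaged.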

T1 sequence (Q9UM07 2-663): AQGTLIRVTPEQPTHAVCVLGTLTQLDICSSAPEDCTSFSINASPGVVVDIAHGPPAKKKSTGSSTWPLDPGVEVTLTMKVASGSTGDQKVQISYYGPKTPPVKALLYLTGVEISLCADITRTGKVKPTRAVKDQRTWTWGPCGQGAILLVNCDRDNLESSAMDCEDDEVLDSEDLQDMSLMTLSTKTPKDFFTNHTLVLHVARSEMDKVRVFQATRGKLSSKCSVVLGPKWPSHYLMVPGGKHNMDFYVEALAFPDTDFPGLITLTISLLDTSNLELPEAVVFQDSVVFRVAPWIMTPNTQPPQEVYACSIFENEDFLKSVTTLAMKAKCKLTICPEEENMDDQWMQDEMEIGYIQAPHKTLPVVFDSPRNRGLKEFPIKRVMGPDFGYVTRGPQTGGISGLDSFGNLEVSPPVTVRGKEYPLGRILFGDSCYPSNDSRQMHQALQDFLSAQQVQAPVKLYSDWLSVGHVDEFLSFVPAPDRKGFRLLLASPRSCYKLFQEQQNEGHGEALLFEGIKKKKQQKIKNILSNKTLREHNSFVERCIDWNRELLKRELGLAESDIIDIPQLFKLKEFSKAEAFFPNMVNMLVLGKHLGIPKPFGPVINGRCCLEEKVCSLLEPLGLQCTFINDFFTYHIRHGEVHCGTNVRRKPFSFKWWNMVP

Row | IC50 | Compound
1 | 30 nM | COc1cc(C(=O)N2[C@@H]3CC[C@@H](N)[C@H]2CC3)cc2nc(-c3cc4ccc5nc4n3CC(F)(F)CCC[C@@H]3C[C@H]3C(=O)N[C@@H]5C)n(C)c12 [Example 752, (2~{R},5~{R},7~{R})-14-[5-[(1~{R},2~{R},5~{R})-2-amino-8-azabicyclo[3.2.1]octane-8-carbonyl]-7-methoxy-1-methyl-benzimidazol-2-yl]-11,11-difluoro-2-methyl-3,13,19-triazatetracyclo[11.5.2.0^ {5,7}.0^{16,20}]icosa-1(19),14,16(20),17-tetraen-4-one]
2 | 96 nM | CO[C@@H]1CCN(C(=O)c2cc(F)c3c(c2)nc(-c2cc4ccc5nc4n2CCCCCc2cc(Cl)ncc2C(=O)N[C@@H]5C)n3C)C[C@@H]1N [Example 744, (2~{R})-17-[5-[(3~{S},4~ {R})-3-amino-4-methoxy-piperidine-1-carbonyl]-7-fluoro-1-methyl-benzimidazol-2-yl]-8-chloro-2-methyl-3,7,16,22-tetrazatetracyclo [14.5.2.0^{5,10).0^{19,23}] tricosa-1(22),5(10),6,8,17,19(23), 20-heptaen-4-one]
3 | 237 nM | COc1cc(C(=O)N2C[C@H](N)C[C@H](O)[C@@H]2C)cc2nc(-c3cc4ccc5nc4n3CCCCCCC(C)(C)C(=O)N[C@@H]5C)n(C)c12 [Example 786, (11~{R})-17-[5-[(2~{S},3~ {S},5~{R})-5-amino-3-hydroxy-2-methyl-piperidine-1-carbonyl]-7-methoxy-1-methyl-benzimidazol-2-yl]-8,8,11-trimethyl-1,10,19-triazatricyclo[10.5.2.0^ {15,18}]nonadeca-12,14,16,18-tetraen-9-one]
4 | 1270 nM | COc1cc(C(=O)N[C@H]2CNCC[C@@H]2C(F)(F)F)cc2nc(-c3cc4ccc5nc4n3CCCCCCC(C)(C)C(=O)N[C@@H]5C)n(C)c12 [Example 380, 7-methoxy-1-methyl-~{N}-[(3~{R},4~{S})-4-(trifluoromethyl)-3-piperidyl]-2-[(11~{R})-8,8,11-trimethyl-9-oxo-1,10,19-triazatricyclo[10.5.2.0^{15,18}]nonadeca-12(19),13,15(18),16-tetraen-17-yl]benzimidazole-5-carboxamide]
5 | 120 nM | COc1cc(C(=O)N2CC[C@@H](OC)[C@@H](N)C2)cc2nc(-c3cc4ccc5nc4n3C[C@H]3C[C@H]3CCCC(C)(C)C(=O)N[C@@H]5C)n(C)c12 [Example 366, (3~{S),5~{R},12~{R})-18-[5-[(3~{S},4~{R})-3-amino-4-methoxy-piperidine-1-carbonyl]-7-methoxy-1-methyl-benzimidazol-2-yl]-9,9,12-trimethyl-1,11,20-triazatetracyclo[11.5.2.0^{3,5}.0^{16,19}] icosa-13(20),14,16(19),17-tetraen-10-one]
6 | 3350 nM | COc1cc(C(=O)N[C@H]2CNCC[C@H]2O)cc2nc(-c3cc4ccc5nc4n3CCCCCCC(C)(C)C(=O)N[C@@H]5C)n(C)c12 [Example 295, ~{N}-[(3~{S},4~{R})-4-hydroxy-3-piperidyl]-7-methoxy-1-methyl-2-[(11~{R})-8,8,11-trimethyl-9-oxo-1,10,19-triazatricyclo[10.5.2.0^{15,18}]nonadeca-12(19),13,15(18),16-tetraen-17-yl]benzimidazole-5-carboxamide]
7 | 304 nM | COc1cc(C(=O)N2CC[C@@H](OC(F)F)[C@@H](N)C2)cc2nc(-c3cc4ccc5nc4n3CCCCCc3cc4ccccc4nc3C(=O)N(C)[C@@H]5C)n(C)c12 [Example 736, (2~{R})-21-[5-[(3~{S},4~{R})-3-amino-4-(difluoromethoxy)piperidine-1-carbonyl]-7-methoxy-1-methyl-benzimidazol-2-yl]-2,3-dimethyl-3,6,20,26-tetrazapentacyclo[18.5.2.0^ {5,14}.0^{7,12}.0^{23,27}] heptacosa-1(26),5(14), 6,8,10,12,21,23(27),24-nonaen-4-one]
8 | 68 nM | COc1cc(C(=O)N2C[C@H](N)[C@@H]3CC[C@H]2C3)cc2nc(-c3cc4ccc5nc4n3CC(F)(F)CCCCC(C)(C)C(=O)N[C@@H]5C)n(C3CC3)c12 [Example 941, (11~{R})-17-[5-[(1~{S},4~{R}, 5~{R})-4-amino-2-azabicyclo [3.2.1]octane-2-carbonyl]-1-cyclopropyl-7-methoxy-benzimidazol-2-yl]-3,3-difluoro-8,8,11-trimethyl-1,10,19-triazatricyclo[10.5.2.0^{15,18}] nonadeca-12(19), 13,15(18),16-tetraen-9-one]
9 | 5130 nM | COc1cc(C(=O)N[C@@H]2CNC[C@@H]3C[C@@H]32)cc2nc(-c3cc4ccc5nc4n3CCCCCCC(C)(C)C(=O)N[C@@H]5C)n(C)c12 [Example 202, ~{N}-[(1~{R},5~{S},6~{S})-3-azabicyclo[4.1.0]heptan-5-yl]-7-methoxy-1-methyl-2-[(11~{R})-8,8,11-trimethyl-9-oxo-1,10,19-triazatricyclo[10.5.2.0^{15,18}]nonadeca-12(19),13,15(18),16-tetraen-17-yl]benzimidazole-5-carboxamide]
10 | 26 nM | C[C@H]1NC(=O)c2ccc(C3CC3)nc2CCCCCn2c(-c3nc4cc(C(=O)N5C[C@H](N)[C@@H]6CC[C@H]5C6)cc(F)c4n3C3CC3)cc3ccc1nc32 [Example 813, (2˜{R})-17-[5-[(1˜{S},4˜{R},5˜{R})-4-amino-2-azabicyclo[3.2.1]octane-2-carbonyl]-1-cyclopropyl-7-fluoro-benzimidazol-2-yl]-8-cyclopropyl-2-methyl-3,9,16,22-tetrazatetracyclo[14.5.2.0^{5,10}.0^{19,23}]tricosa-1(21),5(10),6,8,17,19,22-heptaen-4-one]
11 | 65 nM | COc1cc(C(=O)N2CCC[C@@H](N)C2)cc2nc(-c3cc4ccc5nc4n3C[C@@H]3C[C@@H]3COCCC(=O)N[C@@H]5C)n(C)c12 [Example 305, (3~{R},5~{S},12~{R})-18-[5-[(3~{R})-3-aminopiperidine-1-carbonyl]-7-methoxy-1-methyl-benzimidazol-2-yl]-12-methyl-7-oxa-1,11,20-triazatetracyclo[11.5.2.0^{3,5).0^{16,19}] icosa-13(20),14,16(19),17-tetraen-10-one]
12 | 68 nM | COc1cc(C(=O)N2[C@H]3CC[C@@H]2[C@H](N)C3)cc2nc(-c3cc4ccc5nc4n3CC(C)(C)CCCCCC(=O)N[C@@H]5C)n(C)c12 [Example 141, (11~{R})-17-[5-[(1~{R},2~{R},4~{S})-2-amino-7-azabicyclo[2.2.1]heptane-7-carbonyl]-7-methoxy-1-methyl-benzimidazol-2-yl]-3,3,11-trimethyl-1,10,19-triazatricyclo[10.5.2.0^{15,18}]nonadeca-12(19),13,15(18),16-tetraen-9-one]
13 | 23700 nM | COc1cc(C(=O)N[C@@H]2CNCCC2(F)F)cc2nc(-c3cc4ccc5nc4n3CCCCCCC(C)(C)C(=O)N[C@@H]5C)n(C)c12 [Example 296, ~{N}-[(3~{R})-4,4-difluoro-3-piperidyl]-7-methoxy-1-methyl-2-[(11~{R})-8,8,11-trimethyl-9-oxo-1,10,19-triazatricyclo[10.5.2.0^{15,18}]nonadeca-12(19),13,15(18),16-tetraen-17-yl]benzimidazole-5-carboxamide]
